Experimental data published in patent US20220267352A1, “RAPAMYCIN ANALOGS AND USES THEREOF” (Anakuria Therapeutics, Inc., priority 2021, published 2022).

Key:
Format in all cases: cell-based
[1] = test system: p-p70 S6 Kinase (Thr389) in MCF-7 cells; assay: AlphaLISA Ultra pS6K1 assay; details: Homo sapiens, 1.5 h; MCF7 cells, 90 min
Procedure, shortened: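 Phospho-S6K1 (Thr389) quantified by AlphaLISA Ultra read-out (2 h acceptor, then 2 h donor beads) in lysates of MCF-7 cells. Cells were plated 20–24 h before, refed 2 h, exposed to compounds for 90 min at 0.5% final DMSO, and lysates stored at −80 °C.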

[2] = test system: p-Akt 1/2/3 (Ser473) in MCF-7 cells; assay: AlphaLISA Ultra pAKT assay; details: Homo sapiens, 1.5 h; MCF7 cells, 90 min
Procedure, shortened: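 MCF-7 cells (16,000˜20,000 per well in 36 μL medium) were seeded in Corning 3701 plates for 20˜24 hour, refreshed with new medium for 90 minutes, then given 12 μL of 4× compound (0.5% final DMSO). Cells were lysed with 2× lysis buffer, and lysate was analyzed by AlphaLISA Ultra pAKT using acceptor and donor beads, read on an EnSpire reader.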

mTORC1 over mTORC2 = mTORC1 over mTORC2 selectivity by comparing pS6K1 and pAKT IC50; details: by comparing pS6K1 and pAKT IC50, 90 min
Procedure, shortened: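 MCF-7 cells were treated with compounds (0.5% final DMSO) for 90 minutes in one protocol and 2 hours in the other, then lysed. Phospho-signal in lysates was read by bead-based donor/acceptor proximity assay. pS6K1 and pAKT IC50 values were compared to judge mTORC1 over mTORC2 selectivity, at 90 min and at 24 hrs.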

CO[C@@H]1C[C@H](C[C@@H](C)[C@@H]2CC(=O)[C@H](C)/C=C(\C)[C@@H](O)[C@@H](OC)C(=O)[C@H](C)C[C@H](C)/C=C/C=C/C=C(\C)C(OCCOC3COC3)C[C@@H]3CC[C@@H](C)[C@@](O)(O3)C(=O)C(=O)N3CCCC[C@H]3C(=O)O2)CC[C@H]1OCCCN1CC2(COC2)C1 (stereo partly drawn) [I-91, (27E,29E,31E,32E,39R,40S,41R,42R,44S,46S,49S,51R,52R,62R)-51,62-dihydroxy-52-methoxy-49-[(1R)-2-[(1S,3R,4R)-3-methoxy-4-[3-(2-oxa-6-azaspiro[3.3]heptan-6-yl)propoxy]cyclohexyl]-1-methyl-ethyl]-39,40,41,42,53,54-hexamethyl-48-[2-(oxetan-3-yloxy)ethoxy]-74,75-dioxa-63-azatricyclohexatriaconta-27,29,31(53),32(54)-tetraene-55,56,57,58,59-pentone]
IC50 [1]: 1 to 10 nM | IC50 [2]: ≥ 1000 nM | mTORC1 selective @ 90 min (mTORC1 over mTORC2): Yes

CO[C@@H]1C[C@H](C[C@@H](C)[C@@H]2CC(=O)[C@H](C)/C=C(\C)[C@@H](O)[C@@H](OC)C(=O)[C@H](C)C[C@H](C)/C=C/C=C/C=C(\C)[C@H](OCCOC3COC3)C[C@@H]3CC[C@@H](C)[C@@](O)(O3)C(=O)C(=O)N3CCCC[C@H]3C(=O)O2)CC[C@H]1OCCCN1CCOCC1 [I-13, (27E,29E,31E,32E,39R,40S,41R,42R,44S,46S,48R,49S,51R,52R,61R)-51,61-dihydroxy-52-methoxy-49-[(1R)-2-[(1S,3R,4R)-3-methoxy-4-(3-morpholinopropoxy)cyclohexyl]-1-methyl-ethyl]-39,40,41,42,53,54-hexamethyl-48-[2-(oxetan-3-yloxy)ethoxy]-73,74-dioxa-63-azatricyclohexatriaconta-27,29,31(53),32(54)-tetraene-55,56,57,58,59-pentone]
IC50 [1]: 1 to 10 nM | IC50 [2]: ≥ 1000 nM | mTORC1 selective @ 90 min (mTORC1 over mTORC2): Yes

CO[C@@H]1C[C@H](C[C@@H](C)[C@@H]2CC(=O)[C@H](C)/C=C(\C)[C@@H](O)[C@@H](OC)C(=O)[C@H](C)C[C@H](C)/C=C/C=C/C=C(\C)[C@@H](OCC3COCCO3)C[C@@H]3CC[C@@H](C)[C@@](O)(O3)C(=O)C(=O)N3CCCC[C@H]3C(=O)O2)CC[C@H]1OCCCO (stereo partly drawn) [I-93, (24E,26E,28E,29E,35R,36S,37R,38R,40S,42S,44S,45S,47R,48R,57R)-44-(1,4-dioxan-2-ylmethoxy)-47,57-dihydroxy-45-[(1R)-2-[(1S,3R,4R)-4-(3-hydroxypropoxy)-3-methoxy-cyclohexyl]-1-methyl-ethyl]-48-methoxy-35,36,37,38,49,50-hexamethyl-69,70-dioxa-58-azatricyclohexatriaconta-24,26,28(49),29(50)-tetraene-51,52,53,54,55-pentone]
IC50 [1]: 1 to 10 nM | IC50 [2]: ≥ 1000 nM | mTORC1 selective @ 90 min (mTORC1 over mTORC2): Yes

CO[C@@H]1/C(C)=C/[C@@H](C)C(=O)C[C@@H]([C@H](C)C[C@@H]2CC[C@@H](OC)[C@H](OC)C2)OC(=O)[C@@H]2CCCCN2C(=O)C(=O)[C@]2(O)O[C@@H](CC[C@H]2C)C[C@@H](OCC2COCCO2)/C(C)=C/C=C/C=C/[C@@H](C)C[C@@H](C)C(=O)[C@@H]1OC (stereo partly drawn) [I-39, (26E,28E,30E,31E,34R,35S,36R,37R,39S,41S,43R,44S,46R,47R,56R)-44-[(1R)-2-[(1S,3R,4R)-3,4-dimethoxycyclohexyl]-1-methyl-ethyl]-43-(1,4-dioxan-2-ylmethoxy)-56-hydroxy-46,47-dimethoxy-34,35,36,37,48,49-hexamethyl-66,67-dioxa-57-azatricyclohexatriaconta-26,28,30(48),31(49)-tetraene-50,51,52,53,54-pentone]
IC50 [1]: 100 to 1000 nM | IC50 [2]: ≥ 1000 nM | mTORC1 selective @ 90 min (mTORC1 over mTORC2): Yes

COCCO[C@@H]1CC[C@@H](C[C@@H](C)[C@@H]2CC(=O)[C@H](C)/C=C(\C)[C@@H](OC)[C@@H](OC)C(=O)[C@H](C)C[C@H](C)/C=C/C=C/C=C(\C)C(OCCOCCOC3COC3)C[C@@H]3CC[C@@H](C)[C@@](O)(O3)C(=O)C(=O)N3CCCC[C@H]3C(=O)O2)C[C@H]1OC (stereo partly drawn) [I-81, (1R,9S,12S,15R,16E,18R,19R,21R,23S,24E,26E,28E,32S,35R)-1-hydroxy-18,19-dimethoxy-12-[(1R)-2-[(1S,3R,4R)-3-methoxy-4-(2-methoxyethoxy)cyclohexyl]-1-methyl-ethyl]-15,17,21,23,29,35-hexamethyl-30-[2-[2-(oxetan-3-yloxy)ethoxy]ethoxy]-11,36-dioxa-4-azatricyclo[30.3.1.0^4,9]hexatriaconta-16,24,26,28-tetraene-2,3,10,14,20-pentone]
IC50 [1]: 10 to 100 nM | IC50 [2]: ≥ 1000 nM | mTORC1 selective @ 90 min (mTORC1 over mTORC2): Yes

CO[C@@H]1C[C@H](C[C@@H](C)[C@@H]2CC(=O)[C@H](C)/C=C(\C)[C@@H](O)[C@@H](OC)C(=O)[C@H](C)C[C@H](C)/C=C/C=C/C=C(\C)C(OCCOC3COC3)C[C@@H]3CC[C@@H](C)[C@@](O)(O3)C(=O)C(=O)N3CCCC[C@H]3C(=O)O2)CC[C@H]1O (stereo partly drawn) [I-88, (23E,25E,27E,28E,32R,33S,34R,35R,37S,39S,41R,42S,44R,45R,54R)-44,54-dihydroxy-42-[(1R)-2-[(1S,3R,4R)-4-hydroxy-3-methoxy-cyclohexyl]-1-methyl-ethyl]-45-methoxy-32,33,34,35,46,47-hexamethyl-41-[2-(oxetan-3-yloxy)ethoxy]-65,66-dioxa-55-azatricyclohexatriaconta-23,25,27(46),28(47)-tetraene-48,49,50,51,52-pentone]
IC50 [1]: 1 to 10 nM | IC50 [2]: ≥ 1000 nM | mTORC1 selective @ 90 min (mTORC1 over mTORC2): Yes

CO[C@@H]1C[C@H](C[C@@H](C)[C@@H]2CC(=O)[C@H](C)/C=C(\C)[C@@H](O)[C@@H](OC)C(=O)[C@H](C)C[C@H](C)/C=C/C=C/C=C(\C)[C@H](OCC3COCCO3)C[C@@H]3CC[C@@H](C)[C@@](O)(O3)C(=O)C(=O)N3CCCC[C@H]3C(=O)O2)CC[C@H]1OC(=O)NCCN1CCOCC1 (stereo partly drawn) [I-102, [(42S,44R,46R)-4-[(2R)-2-[(28E,30E,32E,33E,38R,39S,40R,41R,43S,45S,47R,48S,50R,51R,61R)-47-(1,4-dioxan-2-ylmethoxy)-50,61-dihydroxy-51-methoxy-38,39,40,41,52,53-hexamethyl-54,55,56,57,58-pentaoxo-76,77-dioxa-64-azatricyclohexatriaconta-28,30,32(52),33(53)-tetraen-48-yl]propyl]-46-methoxy-44-cyclohexyl] N-(2-morpholinoethyl)carbamate]
IC50 [1]: < 1 nM | IC50 [2]: ≥ 1000 nM | mTORC1 selective @ 90 min (mTORC1 over mTORC2): Yes

CO[C@@H]1C[C@H](C[C@@H](C)[C@@H]2CC(=O)[C@H](C)/C=C(\C)[C@@H](O)[C@@H](OC)C(=O)[C@H](C)C[C@H](C)/C=C/C=C/C=C(\C)C(OCC3COCCO3)C[C@@H]3CC[C@@H](C)[C@@](O)(O3)C(=O)C(=O)N3CCCC[C@H]3C(=O)O2)CC[C@H]1OC(F)F (stereo partly drawn) [I-6, (24E,26E,28E,29E,32R,33S,34R,35R,37S,39S,42S,44R,45R,55R)-42-[(1R)-2-[(1S,3R,4R)-4-(difluoromethoxy)-3-methoxy-cyclohexyl]-1-methyl-ethyl]-41-(1,4-dioxan-2-ylmethoxy)-44,55-dihydroxy-45-methoxy-32,33,34,35,46,47-hexamethyl-66,67-dioxa-56-azatricyclohexatriaconta-24,26,28(46),29(47)-tetraene-48,49,50,51,52-pentone]
IC50 [1]: 10 to 100 nM | IC50 [2]: ≥ 1000 nM | mTORC1 selective @ 90 min (mTORC1 over mTORC2): Yes

CO[C@@H]1/C(C)=C/[C@@H](C)C(=O)C[C@@H]([C@H](C)C[C@@H]2CC[C@@H](OC)[C@H](OC)C2)OC(=O)[C@@H]2CCCCN2C(=O)C(=O)[C@]2(O)O[C@@H](CC[C@H]2C)CC(OCCOC2COC2)/C(C)=C/C=C/C=C/[C@@H](C)C[C@@H](C)C(=O)[C@@H]1OC (stereo partly drawn) [I-50, (25E,27E,29E,30E,34R,35S,36R,37R,39S,41S,44S,46R,47R,56R)-44-[(1R)-2-[(1S,3R,4R)-3,4-dimethoxycyclohexyl]-1-methyl-ethyl]-56-hydroxy-46,47-dimethoxy-34,35,36,37,48,49-hexamethyl-43-[2-(oxetan-3-yloxy)ethoxy]-65,66-dioxa-57-azatricyclohexatriaconta-25,27,29(48),30(49)-tetraene-50,51,52,53,54-pentone]
IC50 [1]: 1 to 10 nM | IC50 [2]: ≥ 1000 nM | mTORC1 selective @ 90 min (mTORC1 over mTORC2): Yes

COCCO[C@@H]1CC[C@@H](C[C@@H](C)[C@@H]2CC(=O)[C@H](C)/C=C(\C)[C@@H](O)[C@@H](OC)C(=O)[C@H](C)C[C@H](C)/C=C/C=C/C=C(\C)C(OC[C@@H]3COCCO3)C[C@@H]3CC[C@@H](C)[C@@](O)(O3)C(=O)C(=O)N3CCCC[C@H]3C(=O)O2)C[C@H]1OC (stereo partly drawn) [I-76, (1R,9S,12S,15R,16E,18R,19R,21R,23S,24E,26E,28E,32S,35R)-30-[[(2S)-1,4-dioxan-2-yl]methoxy]-1,18-dihydroxy-19-methoxy-12-[(1R)-2-[(1S,3R,4R)-3-methoxy-4-(2-methoxyethoxy)cyclohexyl]-1-methyl-ethyl]-15,17,21,23,29,35-hexamethyl-11,36-dioxa-4-azatricyclo[30.3.1.0^4,9]hexatriaconta-16,24,26,28-tetraene-2,3,10,14,20-pentone]
IC50 [1]: < 1 nM | IC50 [2]: ≥ 1000 nM | mTORC1 selective @ 90 min (mTORC1 over mTORC2): Yes
